In PMC7970304, “The Effects of Apelin and Elabela Ligands on Apelin Receptor Distinct Signaling Profiles” (Frontiers in Pharmacology, 2021):
“Also recorded” adds a separate entry of the source.

Key:
APJ (Apelin receptor) = target: T1, APJ (Apelin receptor) (Homo sapiens, UniProt P35414); assay: Analysis of ligand bias across APJ pathways; assay type: cell-based; set-up: APJ membrane preparations were obtained from transiently transfected HEK293 cells; host or cells: HEK293 cells, transiently transfected; membranes prepared; settings: reference ligand Apelin-13, reference pathway calcium release
T1 sequence (P35414 1-380): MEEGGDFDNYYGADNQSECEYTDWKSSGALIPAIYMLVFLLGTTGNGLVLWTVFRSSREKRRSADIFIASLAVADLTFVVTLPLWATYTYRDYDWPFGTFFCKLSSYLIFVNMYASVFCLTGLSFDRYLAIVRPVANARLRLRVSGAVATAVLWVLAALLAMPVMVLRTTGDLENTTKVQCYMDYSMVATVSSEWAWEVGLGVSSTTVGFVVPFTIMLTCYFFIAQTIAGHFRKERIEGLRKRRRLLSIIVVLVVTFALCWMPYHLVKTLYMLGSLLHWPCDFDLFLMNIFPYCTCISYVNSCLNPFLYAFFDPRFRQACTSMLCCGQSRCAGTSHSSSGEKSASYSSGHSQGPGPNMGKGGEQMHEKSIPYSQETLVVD
Procedure: The concentration-response data for the ligands in various assays were analyzed to determine the biases of the ligands for G protein dependent signaling or β-arrestin dependent signaling, according to a previously published method ([Kenakin et al., 2012]; [Hager et al., 2016]; [Hothersall et al., 2017]). Briefly, the concentration-response data for each ligand were fitted to the Black-Leff operation model to obtain the values of τ and K A, using the following equation: Response=[[…] where [A] is the concentration of the agonist, E m is the maximal response of the system, n is the transducer slope, and K A and τ describe the affinity and efficacy of the agonist, respectively. In the data fitting, the reparametrized form of the equation proposed by [Kenakin et al. (2012)] was used: Response=[…]β2} where β 1 and β 2 are the natural logarithm of K A and τ, respectively, and E m was set to 1. […] The ΔΔlog (τ/K A), or Log (Bias), which is the logarithm of the bias factor for a given pathway over a reference pathway (here, intracellular calcium release), was calculated for each ligand as Δlog (τ/K A)-Δlog (τ/K A)Calcium. The 95% confidence interval (CI) was expressed as the mean ± standard error; Log (Bias) values, whose 95% CI crosses 0, were considered statistically insignificant.

APJ = target: APJ; set-up: method as in Couvineau et al., 2020; settings: displacement of 125I-pE13F; ref Couvineau et al., 2020; cited from earlier work

## CSCC[C@H](NC(=O)[C@@H]1CSSC[C@H](NC(=O)[C@H](CC(N)=O)NC(=O)[C@H](Cc2c[nH]cn2)NC(=O)[C@H](CCCCN)NC(=O)[C@H](CCCNC(=N)N)NC(=O)[C@@H](N)CC(C)C)C(=O)N[C@@H](CC(C)C)C(=O)N[C@@H](CCC(N)=O)C(=O)N[C@@H](CCCNC(=N)N)C(=O)N[C@@H](CCCNC(=N)N)C(=O)N1)C(=O)N1CCC[C@H]1C(=O)N[C@@H](CC(C)C)C(=O)N[C@@H](Cc1c[nH]cn1)C(=O)N[C@@H](CO)C(=O)N[C@@H](CCCNC(=N)N)C(=O)N[C@H](C(=O)N1CCC[C@H]1C(=O)N[C@@H](Cc1ccccc1)C(=O)N1CCC[C@H]1C(=O)O)C(C)C [Elabela-21]
APJ (Apelin receptor)
  signaling bias profile (in words): much stronger activity on the cAMP pathway; also recorded: weaker activity; also recorded: very weak effects on β-arrestin dependent pathways
APJ
  pKi: 9.49
